# In publication PMC9856672, “SGC-CAMKK2-1: A Chemical Probe for CAMKK2” (Cells, 2023):
# How the values were obtained:
# p38-alpha = target: T1, p38-alpha (Homo sapiens, UniProt Q16539); test: KINOMEscan at 1 μM, p38-alpha; type: binding; settings: 1000 nM, read-out: Percent Control
# T1 construct: purchased Eurofins DiscoverX KINOMEscan
# Excerpt: (§1) Supplement cells-12-00287-s001.zip/File S2. KinomeScan data for the CAMKK2 probe and negative control.xlsx, sheet "SGC-CAMKK2-1N" | column: Percent Control
# TXK [1] = target: T2, TXK (Homo sapiens, UniProt P42681); test: KINOMEscan at 1 μM, TXK; type: binding; settings: 1000 nM, read-out: Percent Control
# T2 construct: purchased Eurofins DiscoverX KINOMEscan
# T2 sequence (P42681 whole entry): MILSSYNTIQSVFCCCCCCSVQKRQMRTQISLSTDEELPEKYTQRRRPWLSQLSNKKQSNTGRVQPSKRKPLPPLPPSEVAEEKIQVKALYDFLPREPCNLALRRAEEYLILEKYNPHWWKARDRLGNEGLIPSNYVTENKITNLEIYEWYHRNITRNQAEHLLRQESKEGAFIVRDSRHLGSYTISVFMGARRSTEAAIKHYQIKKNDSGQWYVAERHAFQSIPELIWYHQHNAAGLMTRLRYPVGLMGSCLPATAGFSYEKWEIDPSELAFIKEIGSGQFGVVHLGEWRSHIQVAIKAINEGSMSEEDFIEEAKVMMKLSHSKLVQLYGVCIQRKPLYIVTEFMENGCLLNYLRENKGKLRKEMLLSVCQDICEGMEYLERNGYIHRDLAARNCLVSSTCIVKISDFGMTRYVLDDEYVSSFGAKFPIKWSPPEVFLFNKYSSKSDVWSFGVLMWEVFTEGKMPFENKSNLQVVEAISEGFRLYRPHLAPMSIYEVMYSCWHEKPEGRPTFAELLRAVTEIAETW
# Excerpt: as §1
# MRCKA = target: T3, MRCKA (Homo sapiens, UniProt Q5VT25); test: KINOMEscan at 1 μM, MRCKA; type: binding; settings: 1000 nM, read-out: Percent Control
# T3 construct: purchased Eurofins DiscoverX KINOMEscan
# Excerpt: as §1
# TSSK1B = target: T4, TSSK1B (Homo sapiens, UniProt Q9BXA7); test: KINOMEscan at 1 μM, TSSK1B; type: binding; settings: 1000 nM, read-out: Percent Control
# T4 construct: purchased Eurofins DiscoverX KINOMEscan
# Excerpt: as §1
# ROCK2 = target: T5, ROCK2 (Homo sapiens, UniProt O75116); test: KINOMEscan at 1 μM, ROCK2; type: binding; settings: 1000 nM, read-out: Percent Control
# T5 construct: purchased Eurofins DiscoverX KINOMEscan
# Excerpt: as §1
# NEK9 = target: T6, NEK9 (Homo sapiens, UniProt Q8TD19); test: KINOMEscan binding assay at 1 μM, NEK9; settings: Compound Concentration 1000 nM; read-out: Percent Control
# T6 construct: purchased Eurofins DiscoverX KINOMEscan
# T6 sequence (Q8TD19 whole entry): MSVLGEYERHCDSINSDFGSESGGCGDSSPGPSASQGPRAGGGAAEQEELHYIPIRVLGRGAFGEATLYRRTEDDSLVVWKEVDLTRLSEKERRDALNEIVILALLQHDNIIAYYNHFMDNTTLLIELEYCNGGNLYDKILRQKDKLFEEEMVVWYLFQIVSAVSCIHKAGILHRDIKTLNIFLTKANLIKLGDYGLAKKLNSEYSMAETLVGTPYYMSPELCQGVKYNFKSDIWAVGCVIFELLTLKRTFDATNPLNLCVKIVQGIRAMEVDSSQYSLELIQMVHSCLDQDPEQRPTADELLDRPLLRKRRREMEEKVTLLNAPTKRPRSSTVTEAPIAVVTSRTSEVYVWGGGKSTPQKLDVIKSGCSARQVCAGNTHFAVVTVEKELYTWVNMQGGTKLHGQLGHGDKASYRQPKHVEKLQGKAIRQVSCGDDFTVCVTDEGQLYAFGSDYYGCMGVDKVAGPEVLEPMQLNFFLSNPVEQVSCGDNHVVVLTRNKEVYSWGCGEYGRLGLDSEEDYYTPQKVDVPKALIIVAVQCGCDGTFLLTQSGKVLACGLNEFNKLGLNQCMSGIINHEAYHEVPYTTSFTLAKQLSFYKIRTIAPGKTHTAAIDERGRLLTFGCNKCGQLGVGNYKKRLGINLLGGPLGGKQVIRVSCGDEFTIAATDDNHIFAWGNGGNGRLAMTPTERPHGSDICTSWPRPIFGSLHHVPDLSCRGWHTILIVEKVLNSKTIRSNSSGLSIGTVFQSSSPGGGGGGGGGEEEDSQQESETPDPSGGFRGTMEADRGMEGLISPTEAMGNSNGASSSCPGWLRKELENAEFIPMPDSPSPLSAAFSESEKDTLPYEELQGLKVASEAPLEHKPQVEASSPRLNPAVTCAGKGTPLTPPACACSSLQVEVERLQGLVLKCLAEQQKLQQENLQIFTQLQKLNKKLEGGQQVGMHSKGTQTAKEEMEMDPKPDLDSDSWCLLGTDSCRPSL
# Excerpt: as §1
# CDK7 = target: T7, CDK7 (Homo sapiens, UniProt P50613); test: KINOMEscan at 1 μM, CDK7; type: binding; settings: 1000 nM, read-out: Percent Control
# T7 construct: purchased Eurofins DiscoverX KINOMEscan
# Excerpt: as §1
# TNNI3K = target: T8, TNNI3K (Homo sapiens, UniProt Q59H18); test: KINOMEscan at 1 μM, TNNI3K; type: binding; settings: 1000 nM, read-out: Percent Control
# T8 construct: purchased Eurofins DiscoverX KINOMEscan
# Excerpt: as §1
# TAOK1 = target: T9, TAOK1 (Homo sapiens, UniProt Q7L7X3); test: KINOMEscan at 1 μM, TAOK1; type: binding; settings: 1000 nM, read-out: Percent Control
# T9 construct: purchased Eurofins DiscoverX KINOMEscan
# Excerpt: as §1
# CDKL3 = target: T10, CDKL3 (Homo sapiens, UniProt Q8IVW4); test: KINOMEscan at 1 μM, CDKL3; type: binding; settings: 1000 nM, read-out: Percent Control
# T10 construct: purchased Eurofins DiscoverX KINOMEscan
# Excerpt: as §1
# WEE1 = target: T11, WEE1 (Homo sapiens, UniProt P30291); test: KINOMEscan at 1 μM, WEE1; type: binding; settings: 1000 nM, read-out: Percent Control
# T11 construct: purchased Eurofins DiscoverX KINOMEscan
# Excerpt: as §1
# TNK1 = target: T12, TNK1 (Homo sapiens, UniProt Q13470); test: KINOMEscan binding assay at 1 μM, TNK1; settings: Compound Concentration 1000 nM; read-out: Percent Control
# T12 construct: purchased Eurofins DiscoverX KINOMEscan
# Excerpt: as §1
# HASPIN = target: T13, HASPIN (Homo sapiens, UniProt Q8TF76); test: KINOMEscan binding assay at 1 μM, HASPIN; settings: Compound Concentration 1000 nM; read-out: Percent Control
# T13 construct: purchased Eurofins DiscoverX KINOMEscan
# T13 sequence (Q8TF76 whole entry): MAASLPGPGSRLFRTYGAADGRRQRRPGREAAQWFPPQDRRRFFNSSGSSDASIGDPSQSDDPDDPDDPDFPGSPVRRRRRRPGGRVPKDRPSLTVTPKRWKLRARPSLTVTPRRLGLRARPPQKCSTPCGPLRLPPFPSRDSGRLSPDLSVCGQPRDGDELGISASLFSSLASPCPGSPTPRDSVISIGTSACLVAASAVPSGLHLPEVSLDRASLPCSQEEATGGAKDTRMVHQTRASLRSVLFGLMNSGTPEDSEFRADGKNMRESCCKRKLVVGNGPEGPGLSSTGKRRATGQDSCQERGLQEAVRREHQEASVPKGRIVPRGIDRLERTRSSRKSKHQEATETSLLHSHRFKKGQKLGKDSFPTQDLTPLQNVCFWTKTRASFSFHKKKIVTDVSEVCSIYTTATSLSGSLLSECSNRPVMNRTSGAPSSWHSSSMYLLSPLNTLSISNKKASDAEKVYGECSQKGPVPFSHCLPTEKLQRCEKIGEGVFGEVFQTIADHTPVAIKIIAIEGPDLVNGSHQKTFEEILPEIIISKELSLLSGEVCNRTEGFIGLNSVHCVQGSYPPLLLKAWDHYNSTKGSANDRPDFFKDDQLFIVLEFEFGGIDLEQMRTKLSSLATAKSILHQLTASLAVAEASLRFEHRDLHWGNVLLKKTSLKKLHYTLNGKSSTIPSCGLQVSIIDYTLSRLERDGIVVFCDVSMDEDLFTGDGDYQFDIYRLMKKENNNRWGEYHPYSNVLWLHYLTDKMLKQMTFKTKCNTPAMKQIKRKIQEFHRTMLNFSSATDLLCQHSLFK
# Excerpt: as §1
# ACVRL1 = target: T14, ACVRL1 (Homo sapiens, UniProt P37023); test: KINOMEscan at 1 μM, ACVRL1; type: binding; settings: 1000 nM, read-out: Percent Control
# T14 construct: purchased Eurofins DiscoverX KINOMEscan
# Excerpt: as §1
# PIM2 = PIM2 (Homo sapiens, UniProt Q9P1W9); test: PIM2 inhibition at Reaction Biology Corporation; type: biochemical; set-up: purchased Reaction Biology Corporation; settings: n = 1, read-out: PIM2 Enzyme IC50
# ZAK = target: T15, ZAK (Homo sapiens, UniProt Q9NYL2); test: DiscoverX KINOMEscan binding assay at 1 μM, ZAK; settings: Compound Concentration 1000 nM, read-out: Percent Control
# T15 construct: purchased Eurofins DiscoverX KINOMEscan
# Excerpt: (§2) Supplement cells-12-00287-s001.zip/File S2. KinomeScan data for the CAMKK2 probe and negative control.xlsx, sheet "SGC-CAMKK2-1" | column: Percent Control
# TIE1 = target: T16, TIE1 (Homo sapiens, UniProt P35590); test: KINOMEscan 1 μM, TIE1; type: binding; settings: 1000 nM; Entrez TIE1; read-out: Percent Control
# T16 construct: purchased Eurofins DiscoverX KINOMEscan
# Excerpt: as §2
# HUNK = target: T17, HUNK (Homo sapiens, UniProt P57058); test: KINOMEscan 1 μM, HUNK; type: binding; settings: 1000 nM; Entrez HUNK; read-out: Percent Control
# T17 construct: purchased Eurofins DiscoverX KINOMEscan
# Excerpt: as §2
# SRPK2 = target: T18, SRPK2 (Homo sapiens, UniProt P78362); test: DiscoverX KINOMEscan binding assay at 1 μM, SRPK2; settings: Compound Concentration 1000 nM, read-out: Percent Control
# T18 construct: purchased Eurofins DiscoverX KINOMEscan
# Excerpt: as §2
# STK16 = target: T19, STK16 (Homo sapiens, UniProt O75716); test: KINOMEscan 1 μM, STK16; type: binding; settings: 1000 nM; Entrez STK16; read-out: Percent Control
# T19 construct: purchased Eurofins DiscoverX KINOMEscan
# Excerpt: as §2
# [2] = target: T20, ABL1(Q252H)-nonphosphorylated (Homo sapiens, UniProt P00519, Q252H); test: KINOMEscan 1 μM, ABL1(Q252H)-nonphosphorylated; type: binding; settings: 1000 nM; Entrez ABL1; read-out: Percent Control
# T20 construct: purchased Eurofins DiscoverX KINOMEscan
# Excerpt: as §2
# TRPM6 = target: T21, TRPM6 (Homo sapiens, UniProt Q9BX84); test: DiscoverX KINOMEscan binding assay at 1 μM, TRPM6; settings: Compound Concentration 1000 nM, read-out: Percent Control
# T21 construct: purchased Eurofins DiscoverX KINOMEscan
# T21 sequence (Q9BX84 whole entry): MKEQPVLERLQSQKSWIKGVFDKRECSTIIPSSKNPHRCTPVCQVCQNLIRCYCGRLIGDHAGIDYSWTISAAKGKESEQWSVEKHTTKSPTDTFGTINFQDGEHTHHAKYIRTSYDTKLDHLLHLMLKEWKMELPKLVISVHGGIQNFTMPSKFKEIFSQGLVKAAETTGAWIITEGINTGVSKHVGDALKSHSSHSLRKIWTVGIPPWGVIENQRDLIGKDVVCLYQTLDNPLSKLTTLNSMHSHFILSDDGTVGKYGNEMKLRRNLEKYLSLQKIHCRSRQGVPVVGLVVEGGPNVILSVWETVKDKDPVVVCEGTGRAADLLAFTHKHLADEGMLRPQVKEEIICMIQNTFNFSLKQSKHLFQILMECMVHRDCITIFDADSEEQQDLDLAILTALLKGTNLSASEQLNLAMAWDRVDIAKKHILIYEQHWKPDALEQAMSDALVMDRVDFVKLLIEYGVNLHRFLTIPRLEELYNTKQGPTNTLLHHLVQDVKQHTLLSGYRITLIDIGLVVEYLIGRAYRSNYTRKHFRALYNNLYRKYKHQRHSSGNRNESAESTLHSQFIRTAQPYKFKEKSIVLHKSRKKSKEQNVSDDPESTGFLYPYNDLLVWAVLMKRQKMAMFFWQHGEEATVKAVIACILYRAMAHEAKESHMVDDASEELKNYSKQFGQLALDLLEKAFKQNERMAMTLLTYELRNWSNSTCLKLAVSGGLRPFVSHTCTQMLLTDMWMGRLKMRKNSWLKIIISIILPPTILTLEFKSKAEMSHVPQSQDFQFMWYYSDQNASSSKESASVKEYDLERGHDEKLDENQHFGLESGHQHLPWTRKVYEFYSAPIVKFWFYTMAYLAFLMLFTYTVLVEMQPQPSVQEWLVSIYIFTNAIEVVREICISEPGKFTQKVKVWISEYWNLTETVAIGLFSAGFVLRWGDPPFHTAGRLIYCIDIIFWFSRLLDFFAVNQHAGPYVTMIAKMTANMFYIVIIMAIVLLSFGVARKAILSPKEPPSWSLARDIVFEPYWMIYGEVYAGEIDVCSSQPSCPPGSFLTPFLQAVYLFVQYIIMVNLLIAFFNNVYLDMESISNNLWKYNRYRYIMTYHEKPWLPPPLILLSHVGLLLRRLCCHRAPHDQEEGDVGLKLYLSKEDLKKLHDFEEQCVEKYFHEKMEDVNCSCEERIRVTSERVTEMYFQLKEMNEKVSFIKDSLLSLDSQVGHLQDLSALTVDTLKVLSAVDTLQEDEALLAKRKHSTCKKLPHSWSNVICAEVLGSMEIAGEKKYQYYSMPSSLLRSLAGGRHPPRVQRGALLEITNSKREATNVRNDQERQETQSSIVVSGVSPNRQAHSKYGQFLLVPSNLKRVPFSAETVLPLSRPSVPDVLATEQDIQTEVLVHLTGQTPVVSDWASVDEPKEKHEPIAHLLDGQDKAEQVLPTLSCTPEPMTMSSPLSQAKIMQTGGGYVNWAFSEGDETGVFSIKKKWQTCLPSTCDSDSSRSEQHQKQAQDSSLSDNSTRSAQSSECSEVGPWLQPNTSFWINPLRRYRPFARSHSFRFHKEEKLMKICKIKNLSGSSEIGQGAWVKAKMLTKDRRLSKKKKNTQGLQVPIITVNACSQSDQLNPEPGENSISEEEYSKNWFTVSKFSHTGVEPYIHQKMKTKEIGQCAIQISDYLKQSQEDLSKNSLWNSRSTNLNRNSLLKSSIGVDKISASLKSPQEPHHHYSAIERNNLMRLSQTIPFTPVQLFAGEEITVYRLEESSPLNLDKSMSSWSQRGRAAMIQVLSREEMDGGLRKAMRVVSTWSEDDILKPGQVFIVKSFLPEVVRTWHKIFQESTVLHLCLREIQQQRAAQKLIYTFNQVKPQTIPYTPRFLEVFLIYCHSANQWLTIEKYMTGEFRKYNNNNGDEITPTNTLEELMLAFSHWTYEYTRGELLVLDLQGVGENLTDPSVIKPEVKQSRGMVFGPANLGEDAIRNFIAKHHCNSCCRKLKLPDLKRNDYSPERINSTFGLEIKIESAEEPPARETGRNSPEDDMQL
# Excerpt: as §2
# CLK1 = target: T22, CLK1 (Homo sapiens, UniProt P49759); test: KINOMEscan 1 μM, CLK1; type: binding; settings: 1000 nM; Entrez CLK1; read-out: Percent Control
# T22 construct: purchased Eurofins DiscoverX KINOMEscan
# T22 sequence (P49759 whole entry): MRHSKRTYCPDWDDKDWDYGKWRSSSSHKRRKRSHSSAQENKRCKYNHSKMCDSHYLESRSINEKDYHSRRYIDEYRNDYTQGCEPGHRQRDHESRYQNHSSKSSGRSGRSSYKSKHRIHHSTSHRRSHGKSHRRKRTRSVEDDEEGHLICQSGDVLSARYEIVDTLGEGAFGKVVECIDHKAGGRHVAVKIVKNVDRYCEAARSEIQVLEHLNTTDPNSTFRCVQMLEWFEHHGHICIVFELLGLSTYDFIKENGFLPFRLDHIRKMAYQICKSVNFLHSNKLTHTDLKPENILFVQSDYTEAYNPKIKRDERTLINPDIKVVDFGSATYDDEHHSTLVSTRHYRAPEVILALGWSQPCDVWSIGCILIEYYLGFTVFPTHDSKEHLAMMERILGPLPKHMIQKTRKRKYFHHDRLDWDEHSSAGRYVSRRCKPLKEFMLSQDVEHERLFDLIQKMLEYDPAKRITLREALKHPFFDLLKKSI
# Excerpt: as §2
# FGR = target: T23, FGR (Homo sapiens, UniProt P09769); test: KINOMEscan 1 μM, FGR; type: binding; settings: 1000 nM; Entrez FGR; read-out: Percent Control
# T23 construct: purchased Eurofins DiscoverX KINOMEscan
# Excerpt: as §2
# TLK1 = target: T24, TLK1 (Homo sapiens, UniProt Q9UKI8); test: KINOMEscan 1 μM, TLK1; type: binding; settings: 1000 nM; Entrez TLK1; read-out: Percent Control
# T24 construct: purchased Eurofins DiscoverX KINOMEscan
# Excerpt: as §2
# MLCK = target: T25, MLCK (Homo sapiens, UniProt Q32MK0); test: KINOMEscan 1 μM, MLCK; type: binding; settings: 1000 nM; Entrez MYLK3; read-out: Percent Control
# T25 construct: purchased Eurofins DiscoverX KINOMEscan
# Excerpt: as §2
# FLT3(R834Q) = target: T26, FLT3(R834Q) (Homo sapiens, UniProt P36888, R834Q); test: KINOMEscan 1 μM, FLT3(R834Q); type: binding; settings: 1000 nM; Entrez FLT3; read-out: Percent Control
# T26 construct: purchased Eurofins DiscoverX KINOMEscan
# Excerpt: as §2
# DAPK2 = target: T27, DAPK2 (Homo sapiens, UniProt Q9UIK4); test: KINOMEscan 1 μM, DAPK2; type: binding; settings: 1000 nM; Entrez DAPK2; read-out: Percent Control
# T27 construct: purchased Eurofins DiscoverX KINOMEscan
# Excerpt: as §2
# FGFR3(G697C) = target: T28, FGFR3(G697C) (Homo sapiens, UniProt P22607, G697C); test: KINOMEscan 1 μM, FGFR3(G697C); type: binding; settings: 1000 nM; Entrez FGFR3; read-out: Percent Control
# T28 construct: purchased Eurofins DiscoverX KINOMEscan
# Excerpt: as §2
# ABL1-nonphosphorylated = target: T29, ABL1-nonphosphorylated (Homo sapiens, UniProt P00519); test: KINOMEscan 1 μM, ABL1-nonphosphorylated; type: binding; settings: 1000 nM; Entrez ABL1; read-out: Percent Control
# T29 construct: purchased Eurofins DiscoverX KINOMEscan
# Excerpt: as §2
# PRKR = target: T30, PRKR (Homo sapiens, UniProt P19525); test: DiscoverX KINOMEscan binding assay at 1 μM, PRKR; settings: PRKR (EIF2AK2); Compound Concentration 1000 nM; read-out: Percent Control
# T30 construct: purchased Eurofins DiscoverX KINOMEscan
# Excerpt: as §2
# ERBB4 = target: T31, ERBB4 (Homo sapiens, UniProt Q15303); test: KINOMEscan 1 μM, ERBB4; type: binding; settings: 1000 nM; Entrez ERBB4; read-out: Percent Control
# T31 construct: purchased Eurofins DiscoverX KINOMEscan
# Excerpt: as §2
# DCAMKL3 = target: T32, DCAMKL3 (Homo sapiens, UniProt Q9C098); test: KINOMEscan 1 μM, DCAMKL3; type: binding; settings: 1000 nM; Entrez DCLK3; read-out: Percent Control
# T32 construct: purchased Eurofins DiscoverX KINOMEscan
# Excerpt: as §2
# TXK [3] = target: T2, TXK; test: DiscoverX KINOMEscan binding assay at 1 μM, TXK; settings: Compound Concentration 1000 nM, read-out: Percent Control
# Excerpt: as §2
smiles,measurement,setting,value
O=C(O)c1ccc(-c2coc3ncc(-c4ccccc4)cc23)cc1Cl [SGC-CAMKK2-1N (UNC-YL-83)],remaining binding at 1 µM,p38-alpha,79%
same,remaining binding at 1 µM,TXK [1],53%
same,remaining binding at 1 µM,MRCKA,96%
same,remaining binding at 1 µM,TSSK1B,83%
same,remaining binding at 1 µM,ROCK2,70%
same,remaining binding at 1 µM,NEK9,100%
same,remaining binding at 1 µM,CDK7,66%
same,remaining binding at 1 µM,TNNI3K,95%
same,remaining binding at 1 µM,TAOK1,77%
same,remaining binding at 1 µM,CDKL3,63%
same,remaining binding at 1 µM,WEE1,84%
same,remaining binding at 1 µM,TNK1,100%
same,remaining binding at 1 µM,HASPIN,100%
same,remaining binding at 1 µM,ACVRL1,100%
O=C(O)c1ccc(-c2coc3ncc(-c4ccccc4)cc23)cc1Cl [Compound 7],IC50,PIM2,1900 nM
Cc1cccc(-c2cnc3occ(-c4ccc(C(=O)O)c(C5CCCC5)c4)c3c2)c1 [SGC-CAMKK2-1 (YL-36)],remaining binding at 1 µM,ZAK,100%
same,remaining binding at 1 µM,TIE1,77%
same,remaining binding at 1 µM,HUNK,94%
same,remaining binding at 1 µM,SRPK2,100%
same,remaining binding at 1 µM,STK16,93%
same,remaining binding at 1 µM,[2],100%
same,remaining binding at 1 µM,TRPM6,100%
same,remaining binding at 1 µM,CLK1,100%
same,remaining binding at 1 µM,FGR,100%
same,remaining binding at 1 µM,TLK1,92%
same,remaining binding at 1 µM,MLCK,86%
same,remaining binding at 1 µM,FLT3(R834Q),100%
same,remaining binding at 1 µM,DAPK2,94%
same,remaining binding at 1 µM,FGFR3(G697C),100%
same,remaining binding at 1 µM,ABL1-nonphosphorylated,95%
same,remaining binding at 1 µM,PRKR,100%
same,remaining binding at 1 µM,ERBB4,100%
same,remaining binding at 1 µM,DCAMKL3,100%
same,remaining binding at 1 µM,TXK [3],100%
